Patent US9724358B2, “Minocycline compounds and methods of use thereof” (Paratek Pharmaceuticals, Inc., priority 2008, dated 2017)

Assays:
[1] = test system: complicated skin and skin structure infections (CSSSI); test: Phase 2 study in CSSSI, clinical outcome at test of cure; assay type: in vivo, human
Method: (§1) A randomized (1:1), controlled, evaluator-blinded Phase 2 study comparing 9-[(2,2-dimethyl-propyl amino)-methyl-minocycline (compound 1) and linezolid (Zyvox™) for the treatment of complicated skin and skin structure infections (CSSSI) was conducted. Patients with CSSSI who required initial intravenous (IV) therapy and met inclusion and exclusion criteria were enrolled at 11 centers in the US and were randomized to receive either compound 1 (100 mg Q24 h IV with 200 mg Q24 h oral step-down) or linezolid (600 mg Q12 h IV with 600 mg Q12 h oral step-down).
(§2) All subjects had four structured evaluations: at Enrollment (Baseline); at End of IV Treatment; at End of Treatment; and at 10 to 17 days after last dose of treatment (test of cure (TOC) evaluation). In addition, the blinded investigator saw each subject daily while they were on IV therapy and at least every 3 days while receiving oral treatment to determine whether to continue current treatment, switch from IV to oral therapy, or discontinue treatment.
(§3) At each of the four structured evaluations, the blinded evaluator assessed the subject, with particular attention to scoring the findings at the primary site of infection and obtaining cultures. Clinical and microbiologic outcomes were determined using these assessments. Primary evaluation criteria was safety and tolerability compared with linezolid. Secondary evaluation criteria was efficacy of compound 1 compared to linezolid, as well as pharmacokinetics of compound 1.
At each scheduled evaluation, the blinded evaluator examined the primary site of infection; for patients with multiple non-contiguous areas of infection, the blinded evaluator identified the most severely affected portion at Enrollment and designated that as the primary site of infection. The following information was recorded for each patient: maximal linear dimension of area of continuous involvement of infection; maximal linear dimension of ulceration, if present; semi-qualitative (scale of 0 to 3; none, mild, marked, severe) description of infection for the following features: erythema, edema/induration, fluctuance, necrotic tissue, purulence (including drainage), and tenderness/pain. In addition, at the Enrollment Evaluation, the following were also recorded the anatomical location of the primary site of infection; and the clinical diagnosis of the type of the infection.
Both the investigational drug, compound 1, and the comparator drug, Zyvox™ were administered intravenously and orally. Patients randomized to linezolid may have received aztreonam IV for suspected or documented gram-negative infection. Subjects were initially treated with study drug IV and then switched to oral therapy. The expected duration of IV treatment was up to 7 days; the expected total duration of treatment (IV and oral) was up to 14 days.
For IV administration, the HCl salt of compound 1 for injection was given as 100 mg in 100 ml sterile saline infused over 30 minutes q24 h. For oral administration, compound 1 100 mg capsules were taken fasting as 2 capsules with 8 oz. water q24 h. No food was to be taken for 30 to 60 minutes after dosing and no dairy products for 4 hours.
Linezolid (Zyvox™) 600 mg tablets and pre-mixed 600 mg IV infusion solution (300 ml volume) were obtained from commercial sources. Linezolid 600 mg IV was administered as a 30 minute infusion.
Efficacy analyses were performed on several populations of subjects. Subjects were analyzed for efficacy according to randomization, regardless of treatment administered.
The Intent-to-Treat (ITT) population includes all enrolled subjects who received at least one dose of study medication.
The modified Intent-to-Treat (mITT) population comprises all subjects in the ITT population who have an Infecting Pathogen isolated at prior to administration of the study compound. […]

MSSA = test: Phase 2 CSSSI study, clinical outcome by organism: MSSA; assay type: in vivo, Staphylococcus aureus
Method: as §1
(§4) An infecting pathogen was defined as an isolate derived from the last positive culture taken from the site of infection under study prior to and including day 1.

GNR = test: Phase 2 CSSSI study, clinical outcome by organism: GNR; assay type: in vivo, gram-negative rods; settings: ME population
Method: as §1, §4

[2] = Phase 2 CSSSI study, safety: ALT level; assay type: in vivo, human
Method: as §1, §3

[3] = Phase 2 CSSSI study, subject disposition (discontinuations); assay type: in vivo, human; settings: ITT population
Method: as §1, §2

[4] = clinically evaluable population
[5] = microbiologically evaluable population
[6] = EOT, ALT abnormal at enrollment
[7] = EOT, ALT within normal limits at enrollment
[8] = TOC, ALT abnormal at enrollment
[9] = TOC, ALT within normal limits at enrollment
[10] = max on treatment, ALT abnormal at enrollment
[11] = max on treatment, ALT within normal limits at enrollment

Question: With CC(=O)NCC1CN(c2ccc(N3CCOCC3)c(F)c2)C(=O)O1 (stereo not shown) [Linezolid, N-[[3-(3-fluoro-4-morpholinophenyl)-2-oxooxazolidin-5-yl]methyl]acetamide, reference compound] as the compound, how does the “Clinical Failure (% of subjects)” value ([1]; ITT population) read?
Answer: 24.1%

Question: And the “Clinical Failure (number of subjects)” value ([1]; ITT population)?
Answer: 26

Question: What about the “Clinical Failure: Failure (% of subjects)” value ([1]; ITT population) of the same compound?
Answer: 5.6%

Question: What about the “Clinical Failure: Failure (number of subjects)” value ([1]; ITT population) of the same compound?
Answer: 6

Question: And the “Clinical Failure: Nonevaluable (% of subjects)” value ([1]; ITT population)?
Answer: 18.5%

Question: And the “Clinical Failure: Nonevaluable (number of subjects)” value ([1]; ITT population)?
Answer: 20

Question: What about the “Clinical Success (% of subjects)” value ([1]; ITT population) of the same compound?
Answer: 75.9%

Question: And the “Clinical Success (number of subjects)” value ([1]; ITT population)?
Answer: 82

Question: And the “Clinical Failure (% of subjects)” value [1, 4]?
Answer: 6.8%

Question: What about the “Clinical Failure (number of subjects)” value [1, 4] of the same compound?
Answer: 6

Question: And the “Clinical Success (% of subjects)” value [1, 4]?
Answer: 93.2%

Question: What about the “Clinical Success (number of subjects)” value [1, 4] of the same compound?
Answer: 82

Question: And the “Clinical Failure (% of subjects)” value ([1]; mITT population)?
Answer: 24.4%

Question: And the “Clinical Failure (number of subjects)” value ([1]; mITT population)?
Answer: 19

Question: What about the “Clinical Failure: Failure (% of subjects)” value ([1]; mITT population) of the same compound?
Answer: 5.1%

Question: And the “Clinical Failure: Failure (number of subjects)” value ([1]; mITT population)?
Answer: 4

Question: And the “Clinical Failure: Nonevaluable (% of subjects)” value ([1]; mITT population)?
Answer: 19.2%

Question: What about the “Clinical Failure: Nonevaluable (number of subjects)” value ([1]; mITT population) of the same compound?
Answer: 15

Question: And the “Clinical Success (% of subjects)” value ([1]; mITT population)?
Answer: 75.6%

Question: What about the “Clinical Success (number of subjects)” value ([1]; mITT population) of the same compound?
Answer: 59

Question: And the “Clinical Failure (% of subjects)” value [1, 5]?
Answer: 6.3%

Question: What about the “Clinical Failure (number of subjects)” value [1, 5] of the same compound?
Answer: 4

Question: And the “Clinical Success (% of subjects)” value [1, 5]?
Answer: 93.7%

Question: And the “Clinical Success (number of subjects)” value [1, 5]?
Answer: 59

Question: And the “Clinical outcome Failure (number)” value (MSSA; ME population, MSSA)?
Answer: 2

Question: What about the “Clinical outcome Success (number)” value (MSSA; ME population, MSSA) of the same compound?
Answer: 21

Question: And the “clinical success rate against MSSA” value (MSSA; as determined in the trials of the Exemplification)?
Answer: 91%

Question: What about the “Clinical outcome Failure (number)” value (GNR) of the same compound?
Answer: 0

Question: What about the “Clinical outcome Success (number)” value (GNR) of the same compound?
Answer: 7

Question: What about the “ALT Increase: >2x ULN and 2x baseline (number)” value (from here on “ALT Increase … (number)”) [2, 6] of the same compound?
Answer: 0

Question: And the “ALT NS: >ULN and <2x baseline (%)” value [2, 6]?
Answer: (63.6%)

Question: And the “ALT NS: >ULN and <2x baseline (number)” value [2, 6]?
Answer: 7

Question: What about the “ALT Within normal limits (%)” value [2, 6] of the same compound?
Answer: (36.4%)

Question: What about the “ALT Within normal limits (number)” value [2, 6] of the same compound?
Answer: 4

Question: What about the “ALT 1x-2x (%)” value [2, 7] of the same compound?
Answer: (10.0%)

Question: What about the “ALT 1x-2x (number)” value [2, 7] of the same compound?
Answer: 9

Question: What about the “ALT 2x-3x (%)” value [2, 7] of the same compound?
Answer: (1.1%)

Question: And the “ALT 2x-3x (number)” value [2, 7]?
Answer: 1

Question: What about the “ALT >3x (%)” value [2, 7] of the same compound?
Answer: (1.1%)

Question: What about the “ALT >3x (number)” value [2, 7] of the same compound?
Answer: 1

Question: What about the “ALT Within normal limits (%)” value [2, 7] of the same compound?
Answer: (87.8%)

Question: What about the “ALT Within normal limits (number)” value [2, 7] of the same compound?
Answer: 79

Question: What about the “ALT Increase: >2x ULN and 2x baseline (%)” value [2, 8] of the same compound?
Answer: (8.3%)

Question: And the “ALT Increase … (number)” value [2, 8]?
Answer: 1

Question: What about the “ALT NS: >ULN and <2x baseline (%)” value [2, 8] of the same compound?
Answer: (50.0%)

Question: What about the “ALT NS: >ULN and <2x baseline (number)” value [2, 8] of the same compound?
Answer: 6

Question: And the “ALT Within normal limits (%)” value [2, 8]?
Answer: (41.7%)

Question: And the “ALT Within normal limits (number)” value [2, 8]?
Answer: 5

Question: And the “ALT 1x-2x (%)” value [2, 9]?
Answer: (5.1%)

Question: And the “ALT 1x-2x (number)” value [2, 9]?
Answer: 4

Question: What about the “ALT 2x-3x (number)” value [2, 9] of the same compound?
Answer: 0

Question: What about the “ALT >3x (number)” value [2, 9] of the same compound?
Answer: 0

Question: And the “ALT Within normal limits (%)” value [2, 9]?
Answer: (94.9%)

Question: And the “ALT Within normal limits (number)” value [2, 9]?
Answer: 75

Question: What about the “ALT Increase: >2x ULN and 2x baseline (%)” value [2, 10] of the same compound?
Answer: (16.7%)

Question: What about the “ALT Increase … (number)” value [2, 10] of the same compound?
Answer: 2

Question: What about the “ALT NS: >ULN and <2x baseline (%)” value [2, 10] of the same compound?
Answer: (66.7%)

Question: What about the “ALT NS: >ULN and <2x baseline (number)” value [2, 10] of the same compound?
Answer: 8

Question: What about the “ALT Within normal limits (%)” value [2, 10] of the same compound?
Answer: (16.7%)

Question: What about the “ALT Within normal limits (number)” value [2, 10] of the same compound?
Answer: 2

Question: And the “ALT 1x-2x (%)” value [2, 11]?
Answer: (14.7%)

Question: And the “ALT 1x-2x (number)” value [2, 11]?
Answer: 14

Question: And the “ALT 2x-3x (%)” value [2, 11]?
Answer: (5.3%)

Question: And the “ALT 2x-3x (number)” value [2, 11]?
Answer: 5

Question: And the “ALT >3x (%)” value [2, 11]?
Answer: (1.1%)

Question: And the “ALT >3x (number)” value [2, 11]?
Answer: 1

Question: What about the “ALT Within normal limits (%)” value [2, 11] of the same compound?
Answer: (78.9%)

Question: What about the “ALT Within normal limits (number)” value [2, 11] of the same compound?
Answer: 75

Question: And the “Premature Discontinuation (% of subjects)” value [3]?
Answer: (7.4%)

Question: What about the “Premature Discontinuation (number of subjects)” value [3] of the same compound?
Answer: 8

Question: What about the “Premature Discontinuation due to Adverse Event (% of subjects)” value [3] of the same compound?
Answer: (1.9%)

Question: What about the “Premature Discontinuation due to Adverse Event (number of subjects)” value [3] of the same compound?
Answer: 2

Question: What about the “Premature Discontinuation due to Treatment Failure (number of subjects)” value [3] of the same compound?
Answer: 0
